# Where a chain is given by its changes, count along the chain named. Where two headings read alike, the source gives them in different places.
# T1: human serine racemase (hSR) WT (Homo sapiens, UniProt Q9GZT4, C2D/C6D)
# T1 construct: (His)6 (C); made in house; host or cells: E. coli (BL21-CodonPlus (DE3)-RIL for the mutants; the wild type is only 'as described[33]')
# T1 sequence (Q9GZT4 1-340 C2D/C6D): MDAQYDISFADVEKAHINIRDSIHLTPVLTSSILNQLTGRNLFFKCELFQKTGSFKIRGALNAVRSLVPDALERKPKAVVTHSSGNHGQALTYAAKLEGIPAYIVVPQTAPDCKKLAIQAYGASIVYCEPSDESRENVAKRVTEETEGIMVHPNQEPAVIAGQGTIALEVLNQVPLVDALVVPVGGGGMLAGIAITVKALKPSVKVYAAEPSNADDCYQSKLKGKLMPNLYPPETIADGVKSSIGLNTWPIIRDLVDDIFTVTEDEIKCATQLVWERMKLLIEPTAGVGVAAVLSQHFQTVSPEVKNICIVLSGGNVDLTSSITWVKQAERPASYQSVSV
# T2: hSR Y121G (Homo sapiens, UniProt Q9GZT4, C2D/C6D/Y121G)
# T2 construct: (His)6 (C); made in house; host or cells: E. coli BL21-CodonPlus (DE3)-RIL
# T2 sequence (Q9GZT4 1-340 C2D/C6D/Y121G): T1 sequence (Q9GZT4 1-340 C2D/C6D) with Y121G
# T3: hSR Y121A (Homo sapiens, UniProt Q9GZT4, C2D/C6D/Y121A)
# T3 construct: (His)6 (C); made in house; host or cells: E. coli BL21-CodonPlus (DE3)-RIL
# T3 sequence (Q9GZT4 1-340 C2D/C6D/Y121A): T1 sequence (Q9GZT4 1-340 C2D/C6D) with Y121A
# T4: hSR Y121F (Homo sapiens, UniProt Q9GZT4, C2D/C6D/Y121F)
# T4 construct: (His)6 (C); made in house; host or cells: E. coli BL21-CodonPlus (DE3)-RIL
# T4 sequence (Q9GZT4 1-340 C2D/C6D/Y121F): T1 sequence (Q9GZT4 1-340 C2D/C6D) with Y121F
# T5: hSR Tyr 121 pocket (Homo sapiens, UniProt Q9GZT4, C2D/C6D)
# T5 construct: (His)6 (C); made in house; host or cells: E. coli (BL21-CodonPlus (DE3)-RIL for the mutants; the wild type is only 'as described[33]')
# T5 sequence (Q9GZT4 1-340 C2D/C6D): T1 sequence (Q9GZT4 1-340 C2D/C6D)
# B1: DISC1: Disrupted-In-Schizophrenia-1 (protein, UniProt Q9NRI5 1-854, looked up)
# Disrupted in schizophrenia 1 …: MPGGGPQGAPAAAGGGGVSHRAGSRDCLPPAACFRRRRLARRPGYMRSSTGPGIGFLSPAVGTLFRFPGGVSGEESHHSESRARQCGLDSRGLLVRSPVSKSAAAPTVTSVRGTSAHFGIQLRGGTRLPDRLSWPCGPGSAGWQQEFAAMDSSETLDASWEAACSDGARRVRAAGSLPSAELSSNSCSPGCGPEVPPTPPGSHSAFTSSFSFIRLSLGSAGERGEAEGCPPSREAESHCQSPQEMGAKAASLDGPHEDPRCLSRPFSLLATRVSADLAQAARNSSRPERDMHSLPDMDPGSSSSLDPSLAGCGGDGSSGSGDAHSWDTLLRKWEPVLRDCLLRNRRQMEVISLRLKLQKLQEDAVENDDYDKAETLQQRLEDLEQEKISLHFQLPSRQPALSSFLGHLAAQVQAALRRGATQQASGDDTHTPLRMEPRLLEPTAQDSLHVSITRRDWLLQEKQQLQKEIEALQARMFVLEAKDQQLRREIEEQEQQLQWQGCDLTPLVGQLSLGQLQEVSKALQDTLASAGQIPFHAEPPETIRSLQERIKSLNLSLKEITTKVCMSEKFCSTLRKKVNDIETQLPALLEAKMHAISGNHFWTAKDLTEEIRSLTSEREGLEGLLSKLLVLSSRNVKKLGSVKEDYNRLRREVEHQETAYETSVKENTMKYMETLKNKLCSCKCPLLGKVWEADLEACRLLIQSLQLQEARGSLSVEDERQMDDLEGAAPPIPPRLHSEDKRKTPLKVLEEWKTHLIPSLHCAGGEQKEESYILSAELGEKCEDIGKKLLYLEDQLHTAIHSHDEDLIQSLRRELQMVKETLQAMILQLQPAKEAGEREAAASCMTAGVHEAQA
# Legend:
# [1] = molecular target: T1, human serine racemase (hSR) WT; assay: L- to D-Ser racemisation coupled luminescence assay, wild-type hSR; format: biochemical; settings: for inhibition of SR, in words: assay data for compounds observed to displace Tyr 121; for inhibition at 16700 µM: maximum compound concentration 16.7mM, read-out: inhibition at maximum concentration used in assay; for IC50: wild-type hSR, 1 mM ATP, 2 mM L-serine, 16.7% DMSO, ~ = extrapolated with artificial 100% point at 1 M
# Description: (§1) The ability of compounds to inhibit the L to D-Ser racemisation activity of hSR was measured in a coupled assay. In the assay, hSR converts L-Ser to D-Ser. The D-Ser is then converted into pyruvate, ammonia and hydrogen peroxide using D-amino acid oxidase. Next, the hydrogen peroxide reacts with luminol in the presence of horseradish peroxidase, producing luminescent by-product. In the assay malonate was used as a control compound and gave 100% inhibition – results for XChem compounds are shown in Supplementary Table 4 and in supplementary Fig. 12. The activity of the wild-type and the three Y121 mutants, Y121F, Y121A and Y121G was measured at six ATP concentrations (1 mM, 0.5 mM, 0.25 mM, 0.125 mM, 0.062 mM and 0.031 mM) as shown in supplementary Fig. 11.
# (§2) The inhibition of hSR activity was measured using a luminescence assay in a 384 well plate (flat bottom white, Corning). Initially, each well contained 100 mM Tris pH 8.5, 0.05% Pluronic f-127 (VWR), 1 mM MgCl2, 1 mM ATP (disodium salt, Fisher), 10 µM PLP, 0.3 nM hSR, 2 mM L-serine and compound at 16.67 mM to 0.0077 mM (see supplementary Fig. 12) and had 16.7% DMSO concentration. The plate was incubated at RT with shaking for 30 min. After this, the reaction was stopped using a detection mix. The final well concentration was 100 mM Tris pH 8.5, 0.05% Pluronic f-127 (VWR), 1 mM EDTA (Fisher), 0.25 U/mL horseradish peroxidase, 0.5 U/mL D-amino acid oxidase and 25 µM Luminol (Insight Biotechnology) and 8.4% DMSO. The plate was left to incubate covered and shaking for 10 min. The plate was then read using a PHERAstar (BMG) plate reader. For the ATP dependant activity data, the method was kept the same, except for varying the concentration of ATP.
# (§3) The relative light units read (x) on the PHERAstar were converted into percentage inhibition (PI) using the equation: PI=100x[1−(x−Min)/(Max−Min)] where min is negative control (100% inhibition) and max is the positive control (no inhibition). The IC50s were calculated with GraphPad (Prism 8.3.1, Graphpad Software, San Diego CA).
# hSR Y121G = molecular target: T2, hSR Y121G; assay: L- to D-Ser racemisation coupled luminescence assay, Y121G mutant; format: biochemical; settings: 1 mM ATP, 2 mM L-serine, 16.7% DMSO, ~ = extrapolated
# Description: as §1, §2, §3
# hSR Y121A = molecular target: T3, hSR Y121A; assay: L- to D-Ser racemisation coupled luminescence assay, Y121A mutant; format: biochemical; settings: 1 mM ATP, 2 mM L-serine, 16.7% DMSO, ~ = extrapolated
# Description: as §1, §2, §3
# hSR Y121F = molecular target: T4, hSR Y121F; assay: L- to D-Ser racemisation coupled luminescence assay, Y121F mutant; format: biochemical; settings: 1 mM ATP, 2 mM L-serine, 16.7% DMSO, ~ = extrapolated
# Description: as §1, §2, §3
# rat brain SR = system: rat brain SR; parameters: method as in PMID 30918891, PMID 12021263; settings: cited from earlier work
# hSR Tyr 121 pocket = molecular target: T5, hSR Tyr 121 pocket; assay: XChem crystallographic fragment screen; format: binding; parameters: key: A = best; D = worst; settings: crystals soaked with 150 mM fragment
# Description: A crystallographic fragment screen was performed on holo crystals using the XChem screening strategy at Diamond Light Source[58]. For the XChem experiments, holo crystals were generated at 20 °C in 96-well Swissci 3-drop, sitting drop plates (Molecular Dimensions) using 14 mg/mL SR plus fresh 5 mM DTT dispensed in a 3:2 ratio (300 nL protein + 200 nL reservoir) equilibrated against 20 μL reservoir containing 100 mM MES pH 6.2, 100 mM Calcium chloride, 5% ethylene glycol and 20% PEG Smear Broad (Molecular Dimensions). This crystallisation condition differs from that reported in a recent crystal structure of holo SR (6SLH) which was crystallised against reservoir/precipitate of 100 mM Bis-Tris pH 6.5, 15% PEG 3350, 250 mM MgCl2[33]. ATP was present in the protein delivery buffer at 1.25-fold times the protein subunit concentration.
# Crystal soaking, harvesting, mounting, and data collections were performed at the Diamond Light Source XChem facilities and beamline I04-1 through the XChem workflow[50],[59]. […] The full compound screen was performed on 600 crystals which were each soaked with 150 mM fragment compound (30% v/v of 500 mM stocks in DMSO) for ≥1.5 h before crystals were harvested and mounted on the fast microscope crystal mounting system. The fragments screened were obtained from the Diamond-SGC-iNext Poised (DSiP) XChem library.
# The structure of the representative XChem holo crystal (20% DMSO soak, no fragment) presented in this paper (6ZUJ) was solved by rigid body refinement based on a previous structure (6SLH)[33] and refined with phenix.refine[71] and REFMAC5[68],[72] and modelled in coot[69]. Initial analysis of approx. 600 ligand-soaked crystals was carried out using XChemExplorer[59] a data-management and workflow tool to support large-scale simultaneous analysis of protein–ligand complexes during structure-based ligand discovery. The workflow flagged 95 structures with binding events, 44 of which were classified as interesting, spanning four distinct binding sites. Five SR structures from the XChem screen are described in this paper that are representative examples of the four major binding sites. One compound, 2-x0406, occupied not just one of the four major binding sites, but also occupied a second site adjacent to the tyrosine 121 pocket.
# SR [2] = system: SR; parameters: method as in supplementary refs 2, 11-32; settings: literature summary; ref supplementary refs 2, 11-32; cited from earlier work
# SR [3] = settings: cited from earlier work; for Ki: review of SR inhibitors
Molecule,IC50 [1] [mM],IC50 (hSR Y121A) [mM],IC50 (hSR Y121F) [mM],Initial rank from examination of XChem electron density/fit (hSR Tyr 121 pocket),also measured
Nc1ccccc1N1CCOCC1 [3-x0458],0.0106,0.0094,0.0123,,"inhibition of SR, in words [1]: reasonably potent inhibitors; inhibition at 16700 µM [1]: 100%; IC50 (hSR Y121G): 0.0234 mM"
[Mn+2] [Mn^2+],,,,,SR activity in the presence of the ion (rat brain SR; 10 μM ion): 153%
CCCc1nnc(NC(=O)c2ccccn2)s1 [8-x0127],,,,D,
[Mg+2] [Mg^2+],,,,,SR activity in the presence of the ion (rat brain SR; 10 μM ion): 112%
CC(=O)NCCc1ccccc1C [1-x0495],~19.5,~23.6,,A,"inhibition at 10000 µM ([1]; 10mM, value of the originally submitted manuscript, quoted in peer review file): 102%"
Cn1nccc1C(=O)NCc1cccs1 [9-x0154],,,,D,
CNCC1COc2ccccc2O1 (stereo not shown) [6-x0513],,,,A,
O=C(CCCc1ccccc1)N1CCOCC1 [7-x0109],~12.5,~22.3,~20.7,,IC50 (hSR Y121G): ~26 mM
NCc1cc(-c2ccccc2)no1 [12-x0437],~25.3,~37.6,~29.9,D,IC50 (hSR Y121G): ~26.3 mM
OCc1ccc(-n2cnc3ccccc32)cc1 [14-x0478],~6.9,~7.85,~7.4,,
O=C(NCc1nc2ccccc2[nH]1)c1ccco1 [2-x0406],~3.7,~8.4,~7.8,,IC50 (hSR Y121G): ~7.4 mM
N[C@H](C(=O)O)[C@H](O)C(=O)O [L-erythro-3-hydroxy-aspartate],,,,,Inhibition mode (SR [2]): Competitive; Ki (SR [3]): < 0.1 mM
NC(=O)c1cnc(C(F)(F)F)nc1 [5-x0501],,,,D,
madecassoside,,,,,Inhibition mode (SR [2]): Competitive; IC50 (SR [3]; ref 49): 0.026 mM
CC(=O)NC1CNc2ccccc2C1 (stereo not shown) [4-x0482],0.0051,0.0033,0.0032,,"inhibition of SR, in words [1]: reasonably potent inhibitors; inhibition at 16700 µM [1]: 100%; IC50 (hSR Y121G): 0.0044 mM"
CC(CS(N)(=O)=O)c1ccccc1 (stereo not shown) [10-x0302],,,,D,
N[C@@H](CC(=O)NO)C(=O)O [L-aspartic acid β-hydroxamate],,,,,Inhibition mode (SR [2]): Competitive; Ki (SR [3]): < 0.1 mM
CS(=O)(=O)Cc1nc2ccccc2[nH]1 [15-x0306],~12.8,~16.1,,,
[Ca+2] [Ca^2+],,,,,SR activity in the presence of the ion (rat brain SR; 1 mM ion): 134%
B1,,,,,Inhibition mode (SR [2]): Stabilises SR
